From ChEMBL document CHEMBL5055626 (J Med Chem, 2021)
Calls of active or inactive are those of the source. No cut-off for these calls is given here. Where a SMILES comes first, the peptide text is derived from it. Bridges are numbered along the chain shown (N, C = ends).

Columns and labels:
[1] = target: Neuronal acetylcholine receptor; alpha2/beta2 (Rattus norvegicus) (UniProt P12389+P12390); test: Antagonist activity at rat alpha2beta2 nAChR expressed in xenopus oocytes assessed as inhibition of Ach- induced response at 10 uM at -70 mV holding potential preincubated for 5 mins followed by Ach stimulation by voltage-clamp based electrophysiological method; type: cell-based; conditions: Oocyte
[2] = target: Neuronal acetylcholine receptor; alpha2/beta4 (Rattus norvegicus) (UniProt P12389+P12392); test: Antagonist activity at rat alpha2beta4 nAChR expressed in xenopus oocytes assessed as inhibition of Ach- induced response at 10 uM at -70 mV holding potential preincubated for 5 mins followed by Ach stimulation by voltage-clamp based electrophysiological method; type: cell-based; conditions: Oocyte
[3] = target: Neuronal acetylcholine receptor; alpha2/beta4 (Rattus norvegicus, UniProt P12389+P12392); test: Antagonist activity at rat alpha2beta4 nAChR expressed in xenopus oocytes assessed as inhibition of Ach- induced response at -70 mV holding potential preincubated for 5 mins followed by Ach stimulation by voltage-clamp based electrophysiological method; type: cell-based, Oocyte
Chain of Neuronal acetylcholine receptor; alpha2/beta4 (P12389 whole entry): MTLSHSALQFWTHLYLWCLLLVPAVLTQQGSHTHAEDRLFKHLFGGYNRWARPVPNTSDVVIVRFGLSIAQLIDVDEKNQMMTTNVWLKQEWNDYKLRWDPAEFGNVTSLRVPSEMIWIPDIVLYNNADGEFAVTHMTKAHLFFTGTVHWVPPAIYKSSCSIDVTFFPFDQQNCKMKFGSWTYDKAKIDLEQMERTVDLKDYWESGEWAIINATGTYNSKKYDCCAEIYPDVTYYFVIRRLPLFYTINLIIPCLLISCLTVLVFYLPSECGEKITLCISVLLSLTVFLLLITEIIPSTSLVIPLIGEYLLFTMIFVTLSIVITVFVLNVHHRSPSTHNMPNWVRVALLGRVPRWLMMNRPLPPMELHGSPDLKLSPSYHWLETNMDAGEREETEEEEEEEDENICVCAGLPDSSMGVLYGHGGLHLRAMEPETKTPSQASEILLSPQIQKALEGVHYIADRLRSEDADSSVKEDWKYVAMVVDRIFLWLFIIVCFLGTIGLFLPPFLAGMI
Chain of Neuronal acetylcholine receptor; alpha2/beta4 (P12392 whole entry): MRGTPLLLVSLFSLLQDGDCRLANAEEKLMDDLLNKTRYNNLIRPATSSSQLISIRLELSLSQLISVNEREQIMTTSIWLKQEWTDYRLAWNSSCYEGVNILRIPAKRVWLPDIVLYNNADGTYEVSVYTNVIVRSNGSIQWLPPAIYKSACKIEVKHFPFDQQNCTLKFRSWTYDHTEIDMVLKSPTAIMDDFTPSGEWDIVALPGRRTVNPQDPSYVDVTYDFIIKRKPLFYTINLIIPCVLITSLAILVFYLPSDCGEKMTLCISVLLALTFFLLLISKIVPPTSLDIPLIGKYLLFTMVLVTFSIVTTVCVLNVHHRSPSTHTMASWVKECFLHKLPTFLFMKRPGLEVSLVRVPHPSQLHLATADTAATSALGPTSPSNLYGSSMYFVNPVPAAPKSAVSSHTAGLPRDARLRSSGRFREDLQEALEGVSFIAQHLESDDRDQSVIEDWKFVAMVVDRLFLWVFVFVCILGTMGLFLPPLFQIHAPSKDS

[4] = target: Nicotinic acetylcholine receptor alpha9/alpha10 (Rattus norvegicus, UniProt P43144+Q9JLB5); test: Antagonist activity at rat alpha9alpha10 nAChR expressed in xenopus oocytes assessed as inhibition of Ach- induced response at -70 mV holding potential preincubated for 5 mins followed by Ach stimulation by voltage-clamp based electrophysiological method; type: cell-based, Oocyte
Chain of Nicotinic acetylcholine receptor alpha9/alpha10 (P43144 whole entry): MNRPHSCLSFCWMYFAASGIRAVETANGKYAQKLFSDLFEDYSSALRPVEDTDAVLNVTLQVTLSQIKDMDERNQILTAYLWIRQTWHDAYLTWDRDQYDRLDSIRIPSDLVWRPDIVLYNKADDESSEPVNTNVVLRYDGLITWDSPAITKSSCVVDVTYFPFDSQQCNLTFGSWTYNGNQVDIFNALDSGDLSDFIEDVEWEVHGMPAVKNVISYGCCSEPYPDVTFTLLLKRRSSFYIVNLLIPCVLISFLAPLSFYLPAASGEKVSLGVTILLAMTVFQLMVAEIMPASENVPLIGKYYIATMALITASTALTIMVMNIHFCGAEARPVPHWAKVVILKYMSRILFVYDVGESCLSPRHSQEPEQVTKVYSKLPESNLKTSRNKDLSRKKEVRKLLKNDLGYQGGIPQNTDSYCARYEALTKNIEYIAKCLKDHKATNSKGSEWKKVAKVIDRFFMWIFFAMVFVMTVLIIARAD
Chain of Nicotinic acetylcholine receptor alpha9/alpha10 (Q9JLB5 whole entry): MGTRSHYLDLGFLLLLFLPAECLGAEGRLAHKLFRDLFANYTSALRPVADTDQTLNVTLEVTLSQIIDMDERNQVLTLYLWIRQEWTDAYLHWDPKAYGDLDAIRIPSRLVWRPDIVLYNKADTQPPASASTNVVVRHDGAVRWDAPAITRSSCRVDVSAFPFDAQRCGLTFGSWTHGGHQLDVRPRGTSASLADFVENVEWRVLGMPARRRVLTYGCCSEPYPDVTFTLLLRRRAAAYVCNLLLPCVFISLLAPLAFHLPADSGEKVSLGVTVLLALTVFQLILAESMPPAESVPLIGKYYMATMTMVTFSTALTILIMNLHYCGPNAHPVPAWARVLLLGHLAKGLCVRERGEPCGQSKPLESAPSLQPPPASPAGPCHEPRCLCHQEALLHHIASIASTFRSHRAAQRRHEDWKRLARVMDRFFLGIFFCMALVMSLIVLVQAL

[5] = target: T1, Nicotinic acetylcholine receptor alpha6/alpha3/beta4 (Homo sapiens, UniProt P30926+P32297+Q15825); test: Antagonist activity at rat alpha6/alpha3beta4 nAChR expressed in xenopus oocytes assessed as inhibition of Ach- induced response at 10^-5 M at -70 mV holding potential preincubated for 5 mins followed by Ach stimulation by voltage-clamp based electrophysiological method relative to control; type: cell-based; design: scale not given: the % may be the effect or the level left; conditions: Oocyte, filed as antagonist, dose 1.0 10^-5M
[6] = target: Nicotinic acetylcholine receptor alpha9/alpha10 (Rattus norvegicus) (UniProt P43144+Q9JLB5); test: Antagonist activity at rat alpha9alpha10 nAChR expressed in xenopus oocytes assessed as inhibition of Ach- induced response at 10 uM at -70 mV holding potential preincubated for 5 mins followed by Ach stimulation by voltage-clamp based electrophysiological method; type: cell-based; conditions: Oocyte
[7] = target: Neuronal acetylcholine receptor; alpha4/beta4 (Rattus norvegicus) (UniProt P09483+P12392); test: Antagonist activity at rat alpha4beta4 nAChR expressed in xenopus oocytes assessed as inhibition of Ach- induced response at 10 uM at -70 mV holding potential preincubated for 5 mins followed by Ach stimulation by voltage-clamp based electrophysiological method; type: cell-based; conditions: Oocyte
[8] = target: Neuronal acetylcholine receptor; alpha4/beta2 (Rattus norvegicus) (UniProt P09483+P12390); test: Antagonist activity at rat alpha4beta2 nAChR expressed in xenopus oocytes assessed as inhibition of Ach- induced response at 10 uM at -70 mV holding potential preincubated for 5 mins followed by Ach stimulation by voltage-clamp based electrophysiological method; type: cell-based; conditions: Oocyte
[9] = target: T1, Nicotinic acetylcholine receptor alpha6/alpha3/beta4; test: Antagonist activity at rat alpha6/alpha3beta4 nAChR expressed in xenopus oocytes assessed as inhibition of Ach- induced response at -70 mV holding potential preincubated for 5 mins followed by Ach stimulation by voltage-clamp based electrophysiological method; type: cell-based, Oocyte
[10] = target: Neuronal acetylcholine receptor; alpha4/beta4 (Rattus norvegicus, UniProt P09483+P12392); test: Antagonist activity at rat alpha4beta4 nAChR expressed in xenopus oocytes assessed as inhibition of Ach- induced response at -70 mV holding potential preincubated for 5 mins followed by Ach stimulation by voltage-clamp based electrophysiological method; type: cell-based, Oocyte
Chain of Neuronal acetylcholine receptor; alpha4/beta4 (P09483 whole entry): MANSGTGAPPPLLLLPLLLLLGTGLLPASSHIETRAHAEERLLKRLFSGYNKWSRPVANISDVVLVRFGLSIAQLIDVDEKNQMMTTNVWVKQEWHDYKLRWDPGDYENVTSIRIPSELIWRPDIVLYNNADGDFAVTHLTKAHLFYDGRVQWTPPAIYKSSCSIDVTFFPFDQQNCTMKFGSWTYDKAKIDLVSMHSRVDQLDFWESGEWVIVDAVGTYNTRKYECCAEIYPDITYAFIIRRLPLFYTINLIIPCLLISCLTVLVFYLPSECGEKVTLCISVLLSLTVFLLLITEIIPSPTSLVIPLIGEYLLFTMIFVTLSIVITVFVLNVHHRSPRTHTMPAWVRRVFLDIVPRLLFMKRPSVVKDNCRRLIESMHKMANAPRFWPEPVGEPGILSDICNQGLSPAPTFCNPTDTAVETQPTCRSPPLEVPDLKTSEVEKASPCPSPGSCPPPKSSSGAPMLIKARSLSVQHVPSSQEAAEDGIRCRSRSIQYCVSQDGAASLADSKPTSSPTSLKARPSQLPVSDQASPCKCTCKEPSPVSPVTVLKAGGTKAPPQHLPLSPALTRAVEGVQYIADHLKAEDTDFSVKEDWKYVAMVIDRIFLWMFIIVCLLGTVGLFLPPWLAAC
Chain of Neuronal acetylcholine receptor; alpha4/beta4 (P12392 whole entry): as the sequence (P12392 whole entry) above

[11] = target: Neuronal acetylcholine receptor; alpha3/beta4 (Rattus norvegicus) (UniProt P04757+P12392); test: Antagonist activity at rat alpha3beta4 nAChR expressed in xenopus oocytes assessed as inhibition of Ach- induced response at 10 uM at -70 mV holding potential preincubated for 5 mins followed by Ach stimulation by voltage-clamp based electrophysiological method; type: cell-based; conditions: Oocyte
[12] = target: Neuronal acetylcholine receptor; alpha4/beta2 (Rattus norvegicus, UniProt P09483+P12390); test: Antagonist activity at rat alpha4beta2 nAChR expressed in xenopus oocytes assessed as inhibition of Ach- induced response at -70 mV holding potential preincubated for 5 mins followed by Ach stimulation by voltage-clamp based electrophysiological method; type: cell-based, Oocyte
Chain of Neuronal acetylcholine receptor; alpha4/beta2 (P09483 whole entry): as the sequence (P09483 whole entry) above
Chain of Neuronal acetylcholine receptor; alpha4/beta2 (P12390 whole entry): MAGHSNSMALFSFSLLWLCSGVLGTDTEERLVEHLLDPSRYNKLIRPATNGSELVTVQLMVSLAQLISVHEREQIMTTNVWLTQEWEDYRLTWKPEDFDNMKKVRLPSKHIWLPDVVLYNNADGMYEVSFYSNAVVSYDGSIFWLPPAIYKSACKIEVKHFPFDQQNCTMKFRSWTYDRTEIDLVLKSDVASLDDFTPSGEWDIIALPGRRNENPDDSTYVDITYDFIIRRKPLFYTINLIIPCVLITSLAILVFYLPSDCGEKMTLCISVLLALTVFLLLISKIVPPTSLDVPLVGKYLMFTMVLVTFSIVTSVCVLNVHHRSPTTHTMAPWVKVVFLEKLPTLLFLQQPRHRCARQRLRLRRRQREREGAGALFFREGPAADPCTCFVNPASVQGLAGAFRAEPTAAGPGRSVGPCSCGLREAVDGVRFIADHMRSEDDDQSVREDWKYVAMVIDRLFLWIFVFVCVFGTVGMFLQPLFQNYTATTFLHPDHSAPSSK

[13] = Antagonist activity at rat alpha6/ alpha3beta2beta3 nAChR expressed in xenopus oocytes assessed as inhibition of Ach- induced response at -70 mV holding potential preincubated for 5 mins followed by Ach stimulation by voltage-clamp based electrophysiological method; type: cell-based; conditions: Oocyte
[14] = target: Neuronal acetylcholine receptor; alpha3/beta4 (Rattus norvegicus, UniProt P04757+P12392); test: Antagonist activity at rat alpha3beta4 nAChR expressed in xenopus oocytes assessed as inhibition of Ach- induced response at -70 mV holding potential preincubated for 5 mins followed by Ach stimulation by voltage-clamp based electrophysiological method; type: cell-based, Oocyte
Chain of Neuronal acetylcholine receptor; alpha3/beta4 (P04757 whole entry): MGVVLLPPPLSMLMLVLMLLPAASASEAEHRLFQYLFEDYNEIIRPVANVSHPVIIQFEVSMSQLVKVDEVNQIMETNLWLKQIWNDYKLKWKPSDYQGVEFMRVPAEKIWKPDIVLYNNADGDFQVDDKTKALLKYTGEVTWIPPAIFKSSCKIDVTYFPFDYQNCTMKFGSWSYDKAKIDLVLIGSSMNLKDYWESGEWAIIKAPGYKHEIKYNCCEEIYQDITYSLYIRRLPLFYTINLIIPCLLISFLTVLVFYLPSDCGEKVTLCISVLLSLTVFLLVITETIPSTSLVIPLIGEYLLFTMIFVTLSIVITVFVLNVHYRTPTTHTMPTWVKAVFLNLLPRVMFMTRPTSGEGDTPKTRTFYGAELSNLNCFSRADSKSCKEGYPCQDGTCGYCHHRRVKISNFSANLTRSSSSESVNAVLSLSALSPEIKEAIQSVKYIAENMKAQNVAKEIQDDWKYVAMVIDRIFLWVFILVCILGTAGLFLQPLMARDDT
Chain of Neuronal acetylcholine receptor; alpha3/beta4 (P12392 whole entry): as the sequence (P12392 whole entry) above

[15] = target: Neuronal acetylcholine receptor; alpha2/beta2 (Rattus norvegicus, UniProt P12389+P12390); test: Antagonist activity at rat alpha2beta2 nAChR expressed in xenopus oocytes assessed as inhibition of Ach- induced response at -70 mV holding potential preincubated for 5 mins followed by Ach stimulation by voltage-clamp based electrophysiological method; type: cell-based, Oocyte
Chain of Neuronal acetylcholine receptor; alpha2/beta2 (P12389 whole entry): as the sequence (P12389 whole entry) above
Chain of Neuronal acetylcholine receptor; alpha2/beta2 (P12390 whole entry): as the sequence (P12390 whole entry) above

[16] = target: Neuronal acetylcholine receptor; alpha3/beta2 (Rattus norvegicus, UniProt P04757+P12390); test: Antagonist activity at rat alpha3beta2 nAChR expressed in xenopus oocytes assessed as inhibition of Ach- induced response at -70 mV holding potential preincubated for 5 mins followed by Ach stimulation by voltage-clamp based electrophysiological method; type: cell-based, Oocyte
Chain of Neuronal acetylcholine receptor; alpha3/beta2 (P04757 whole entry): as the sequence (P04757 whole entry) above
Chain of Neuronal acetylcholine receptor; alpha3/beta2 (P12390 whole entry): as the sequence (P12390 whole entry) above

[17] = target: Neuronal acetylcholine receptor subunit alpha-7 (Rattus norvegicus, UniProt Q05941); test: Antagonist activity at rat alpha7 nAChR expressed in xenopus oocytes assessed as inhibition of Ach- induced response at -70 mV holding potential preincubated for 5 mins followed by Ach stimulation by voltage-clamp based electrophysiological method; type: cell-based, Oocyte
Chain of Neuronal acetylcholine receptor subunit alpha-7 (Q05941 whole entry): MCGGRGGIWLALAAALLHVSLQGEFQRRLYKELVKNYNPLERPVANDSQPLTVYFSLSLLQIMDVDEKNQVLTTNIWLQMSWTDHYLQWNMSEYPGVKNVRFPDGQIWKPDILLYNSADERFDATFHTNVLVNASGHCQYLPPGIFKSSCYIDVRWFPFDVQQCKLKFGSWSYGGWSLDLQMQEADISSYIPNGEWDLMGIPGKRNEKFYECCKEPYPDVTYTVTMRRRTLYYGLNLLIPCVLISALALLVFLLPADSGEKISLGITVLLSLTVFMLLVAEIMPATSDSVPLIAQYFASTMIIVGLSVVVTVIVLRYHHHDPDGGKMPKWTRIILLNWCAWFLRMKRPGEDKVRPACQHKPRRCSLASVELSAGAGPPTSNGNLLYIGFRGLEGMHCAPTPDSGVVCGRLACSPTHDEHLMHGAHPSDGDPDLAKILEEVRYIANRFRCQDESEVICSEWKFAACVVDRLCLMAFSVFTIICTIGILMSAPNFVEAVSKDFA

[18] = target: Neuronal acetylcholine receptor; alpha3/beta2 (Rattus norvegicus) (UniProt P04757+P12390); test: Antagonist activity at rat alpha3beta2 nAChR expressed in xenopus oocytes assessed as inhibition of Ach- induced response at 10^-5 M at -70 mV holding potential preincubated for 5 mins followed by Ach stimulation by voltage-clamp based electrophysiological method relative to control; type: cell-based; design: scale not given: the % may be the effect or the level left; conditions: Oocyte, filed as antagonist, dose 1.0 10^-5M

Structure (SMILES)	inhibition [1]	inhibition [2]	IC50 [3] [µM]	IC50 [4] [µM]	Activity [5] [%]	inhibition [6]	inhibition [7]	inhibition [8]	IC50 [9] [µM]	IC50 [10] [µM]	inhibition [11]	IC50 [12] [µM]	IC50 [13] [µM]	IC50 [14] [µM]	IC50 [15] [µM]	IC50 [16] [µM]	IC50 [17] [µM]	Activity [18] [%]
C[C@@H]1NC(=O)[C@@H]2CSSC[C@H](N)C(=O)N[C@@H](CSSC[C@@H](C(N)=O)NC(=O)[C@H](Cc3cnc[nH]3)NC(=O)[C@H](CCC(=O)O)NC(=O)[C@H](Cc3cnc[nH]3)NC1=O)C(=O)N[C@@H](CO)C(=O)N[C@@H](CC(N)=O)C(=O)N1CCC[C@H]1C(=O)N1CCC[C@H]1C(=O)N2 (H-CCSNPPCAHEHC-NH2; disulfide 1-7, 2-12)	inactive	inactive	> 10	> 10	< 50	inactive	inactive	inactive	> 10	> 10	inactive	> 10	3.3	> 10	> 10	4.63	1.81	
C[C@@H]1NC(=O)[C@@H]2CSSC[C@H](NC(=O)[C@@H](N)CCC(N)=O)C(=O)N[C@@H](CSSC[C@@H](C(=O)N[C@@H](CCCNC(=N)N)C(=O)O)NC(=O)[C@H](Cc3cnc[nH]3)NC(=O)[C@H](CCC(=O)O)NC(=O)[C@H](Cc3cnc[nH]3)NC1=O)C(=O)N[C@@H](CO)C(=O)N[C@@H](CC(N)=O)C(=O)N1CCC[C@H]1C(=O)N1CCC[C@H]1C(=O)N2 (H-QCCSNPPCAHEHCR-OH; disulfide 2-8, 3-13)	inactive	inactive	> 10	> 10		inactive	inactive	inactive	> 10	> 10	inactive	> 10	5.3	> 10	> 10	> 10	1.76	< 50
